Columns and labels:
[1] = tested on: Strep. faecalis L149 ATCC 7080; experiment: MIC, microbroth dilution; assay type: cell-based, Streptococcus faecalis; conditions: inocula 10^4 to 10^5 CFU/ml, Iso-Sensitest broth, 18-24 h, 37° C.
Protocol: (§1) MIC for Propionibacterium aches, and Bacteroides fragilis are determined by agar dilution (inocula 10^4 /10^5 CFU/spot). MIC for other organisms are determined by microbroth dilution (inocula 10^4 to 10^5 CFU/ml). Incubation times are 18-24 h, except for Haemophilus influenzae, P. acnes, B. fragilis (48 h). All organisms are incubated at 37° C.; H. influenzae is incubated in a 5% CO2 atmosphere, anaerobes in an anaerobic gas mixture. Media used are: Iso-Sensitest broth (Oxoid) (Staphylococci, Streptococcus faecalis, Escherichia coli, Proteus vulgaris; brain heart infusion broth (Difco)+1% Supplement C (Difco) (H. influenzae); The minimal inhibitory concentrations (MIC, microgram/ml) for some microorganisms are reported below in Table VII.

[2] = tested on: Prop. acnes L1014 ATCC 6919; experiment: MIC, agar dilution; assay type: cell-based, P. acnes; conditions: inocula 10^4 /10^5 CFU/spot, 48 h, 37° C., anaerobic gas mixture
Protocol: as §1

[3] = tested on: Bact. fragilis L1010 ATCC 23745; experiment: MIC, agar dilution; assay type: cell-based, Bacteroides fragilis; conditions: inocula 10^4 /10^5 CFU/spot, 48 h, 37° C., anaerobic gas mixture
Protocol: as §1

[4] = tested on: Haemophilus Influenzae type B; experiment: MIC, microbroth dilution; assay type: cell-based; conditions: brain heart infusion broth +1% Supplement C, 48 h, 37° C., 5% CO2
Protocol: as §1

Staph. aureus L165 Tour = experiment: MIC, microbroth dilution; assay type: cell-based; conditions: inocula 10^4 to 10^5 CFU/ml, Iso-Sensitest broth, 18-24 h, 37° C.
Protocol: as §1

[5] = tested on: Staph. epidermidis L147 ATCC 12228; experiment: MIC, microbroth dilution; assay type: cell-based; conditions: inocula 10^4 to 10^5 CFU/ml, Iso-Sensitest broth, 18-24 h, 37° C.
Protocol: as §1

Staph. haemolyticus L602 = experiment: MIC, microbroth dilution; assay type: cell-based; conditions: inocula 10^4 to 10^5 CFU/ml, Iso-Sensitest broth, 18-24 h, 37° C.
Protocol: as §1

[6] = tested on: Strep. pneumoniae L44 UC41; experiment: MIC, microbroth dilution; assay type: cell-based; conditions: inocula 10^4 to 10^5 CFU/ml, 18-24 h, 37° C.
Protocol: as §1

Esch. coli L47 SKF 12140 = experiment: MIC, microbroth dilution; assay type: cell-based, Escherichia coli; conditions: inocula 10^4 to 10^5 CFU/ml, Iso-Sensitest broth, 18-24 h, 37° C.
Protocol: as §1

Prot. vulgaris ATCC 881 = experiment: MIC, microbroth dilution; assay type: cell-based, Proteus vulgaris; conditions: inocula 10^4 to 10^5 CFU/ml, Iso-Sensitest broth, 18-24 h, 37° C.
Protocol: as §1

Row | Structure (SMILES) | MIC [1] [microgram/ml] | MIC [2] [microgram/ml] | MIC [3] [microgram/ml] | MIC [4] [microgram/ml] | MIC (Staph. aureus L165 Tour) [microgram/ml] | MIC [5] [microgram/ml] | MIC [6] [microgram/ml] | MIC (Esch. coli L47 SKF 12140) [microgram/ml] | MIC (Prot. vulgaris ATCC 881) [microgram/ml] | MIC (Staph. haemolyticus L602) [microgram/ml]
1 | CNC(=O)CC1NC(=O)c2nc(sc2COC)C(C(C)C)NC(=O)c2csc(n2)-c2ccc(-c3nc(C(=O)NCCCCCC(=O)O)cs3)nc2-c2csc(n2)-c2csc(n2)C(C(O)c2ccccc2)NC(=O)CNC(=O)c2nc1sc2C (stereo not drawn) [Compound 19] | 0.06 | 0.008 | 4 | 2 | 0.06 | 0.06 | 0.25 | > 128 | > 128 | 0.25
2 | CNC(=O)CC1NC(=O)c2nc(sc2COC)C(C(C)C)NC(=O)c2csc(n2)-c2ccc(-c3nc(C(=O)NCCN(C)C)cs3)nc2-c2csc(n2)-c2csc(n2)C(C(O)c2ccccc2)NC(=O)CNC(=O)c2nc1sc2C (stereo not drawn) [Compound 32] | 0.25 | 0.13 | > 128 | > 128 | 0.5 | 0.5 | 1 | > 128 | > 128 | 0.5
3 | CNC(=O)CC1NC(=O)c2nc(sc2COC)C(C(C)C)NC(=O)c2csc(n2)-c2ccc(-c3nc(C(=O)NC(CCSC)C(=O)O)cs3)nc2-c2csc(n2)-c2csc(n2)C(C(O)c2ccccc2)NC(=O)CNC(=O)c2nc1sc2C (stereo not drawn) [Compound 8] | 0.25 | < 0.13 | 32 | 64 | 0.25 | 2 | 4 | > 128 | > 128 | 2
4 | CNC(=O)CC1NC(=O)c2nc(sc2COC)C(C(C)C)NC(=O)c2csc(n2)-c2ccc(-c3nc(C(=O)NC(Cc4ccccc4)C(=O)O)cs3)nc2-c2csc(n2)-c2csc(n2)C(C(O)c2ccccc2)NC(=O)CNC(=O)c2nc1sc2C (stereo not drawn) [Compound 7] | > 0.13 | < 0.13 | > 128 | 128 | 0.25 | 0.5 | 4 | > 128 | > 128 | 4

Now from value to compound, other results behind:

Row | MIC [1] [microgram/ml] | MIC [2] [microgram/ml] | MIC [3] [microgram/ml] | MIC [4] [microgram/ml] | MIC (Staph. aureus L165 Tour) [microgram/ml] | MIC [5] [microgram/ml] | MIC [6] [microgram/ml] | MIC (Esch. coli L47 SKF 12140) [microgram/ml] | MIC (Prot. vulgaris ATCC 881) [microgram/ml] | Structure (SMILES) | MIC (Staph. haemolyticus L602) [microgram/ml]
5 | 0.13 | 0.016 | > 128 | > 128 | 0.13 | 0.5 | 0.5 | > 128 | > 128 | Cc1sc2nc1C(=O)NCC(=O)NC(C(O)c1ccccc1)c1nc(cs1)-c1nc(cs1)-c1nc(-c3nc(C(=O)NCCCCCC(=O)O)cs3)ccc1-c1nc(cs1)C(=O)NC(C(C)C)c1nc(cs1)C(=O)NC2CC(N)=O (stereo not drawn) [Compound 43] | 0.5
6 | 16 | 0.25 | > 128 | > 128 | 32 | 32 | > 128 | > 128 | > 128 | CNC(=O)CC1NC(=O)c2nc(sc2COC)C(C(C)C)NC(=O)c2csc(n2)-c2ccc(-c3nc(C(=O)NCCNCCC(=O)O)cs3)nc2-c2csc(n2)-c2csc(n2)C(C(O)c2ccccc2)NC(=O)CNC(=O)c2nc1sc2C (stereo not drawn) [Compound 38] | 64

From patent US5599791A, “Amides of antibiotic GE 2270 factors” (Gruppo Lepetit SPA, priority 1991, dated 1997)
